In ChEMBL document CHEMBL1201862, “PubChem BioAssay data set” (2004):
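Results reflect a 48-hour exposure of cells in 96-well plates to compound at five concentrations. Here, GI50 denotes the concentration required for 50% inhibition of growth.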 Active and inactive are the calls of the source. Cut-off read from the data, not from the text of the source: active = GI50 up to about 1.1 µM and inactive = higher.

Legend:
Experiment in all cases: NCI tumour cell line growth inhibition, 48 h
NCI-H23 = test system: NCI-H23
ACHN = test system: ACHN
BT-549 = test system: BT-549
UACC-62 = test system: UACC-62
MDA-MB-435 = test system: MDA-MB-435
MOLT-4 = test system: MOLT-4
KM12 = test system: KM12
SF-268 = test system: SF-268
HCT-116 = test system: HCT-116
OVCAR-4 = test system: OVCAR-4
HL-60 = test system: HL-60
A498 = test system: A498
T47D = test system: T47D
HCC 2998 = test system: HCC 2998
EKVX = test system: EKVX
OVCAR-8 = test system: OVCAR-8
HCT-15 = test system: HCT-15
786-0 = test system: 786-0
NCI-H460 = test system: NCI-H460
Hs-578T = test system: Hs-578T
SK-OV-3 = test system: SK-OV-3
LOX IMVI = test system: LOX IMVI
SNB-75 = test system: SNB-75
MCF7 = test system: MCF7
IGROV-1 = test system: IGROV-1
HOP-92 = test system: HOP-92
CAKI-1 = test system: CAKI-1
M14 = test system: M14
UACC-257 = test system: UACC-257
HOP-62 = test system: HOP-62
K562 = test system: K562
A549 = test system: A549
NCI-H522 = test system: NCI-H522
U-251 = test system: U-251
SR = test system: SR
OVCAR-3 = test system: OVCAR-3
HT-29 = test system: HT-29
SW-620 = test system: SW-620
SF-539 = test system: SF-539
CCRF-CEM = test system: CCRF-CEM
RXF 393 = test system: RXF 393
NCI-H226 = test system: NCI-H226
SK-MEL-28 = test system: SK-MEL-28
DU-145 = test system: DU-145
SNB-19 = test system: SNB-19
MDA-MB-231 = test system: MDA-MB-231
RPMI-8226 = test system: RPMI-8226
TK-10 = test system: TK-10
PC-3 = test system: PC-3
NCI/ADR-RES = test system: NCI/ADR-RES
OVCAR-5 = test system: OVCAR-5
UO-31 = test system: UO-31
SK-MEL-5 = test system: SK-MEL-5
SF-295 = test system: SF-295
SN12C = test system: SN12C
SK-MEL-2 = test system: SK-MEL-2
COLO 205 = test system: COLO 205
Malme-3M = test system: Malme-3M
MDA-N = test system: MDA-N

Measured: GI50

C=C1C(=O)OC2C1C(=O)C/C(C)=C/CCC1(C)OC21 (stereo not given)
inactive: NCI-H23 19.5 µM | ACHN 10.5 µM | BT-549 23.3 µM | UACC-62 25.5 µM | MDA-MB-435 15.4 µM | MOLT-4 17.3 µM | KM12 23.6 µM | SF-268 19.6 µM | HCT-116 14.8 µM | OVCAR-4 18.7 µM | HL-60 1.33 µM | A498 23.1 µM | T47D 11.2 µM | HCC 2998 18.9 µM | EKVX 25.2 µM | OVCAR-8 25.6 µM | 786-0 14 µM | NCI-H460 21.2 µM | Hs-578T 44.1 µM | SK-OV-3 29.6 µM | LOX IMVI 2.47 µM | SNB-75 25.4 µM | MCF7 8.63 µM | IGROV-1 20.1 µM | HOP-92 15.2 µM | CAKI-1 14.7 µM | M14 15.6 µM | UACC-257 20.1 µM | HOP-62 14.2 µM | K562 5.6 µM | A549 19.4 µM | NCI-H522 3.63 µM | U-251 19.5 µM | SR 3.33 µM | OVCAR-3 15.1 µM | HT-29 20.6 µM | SW-620 16.4 µM | SF-539 15 µM | CCRF-CEM 2.79 µM | RXF 393 15.4 µM | NCI-H226 15.8 µM | SK-MEL-28 15.2 µM | DU-145 17.4 µM | SNB-19 38.4 µM | MDA-MB-231 20.8 µM | RPMI-8226 12.3 µM | TK-10 16.1 µM | PC-3 18.1 µM | NCI/ADR-RES 31 µM | OVCAR-5 17.7 µM | UO-31 15.2 µM | SK-MEL-5 19.3 µM | SF-295 52.7 µM | SN12C 22.1 µM | SK-MEL-2 18.5 µM | COLO 205 5.45 µM
11.4 µM: HCT-15

O=C1CN(c2ccccc2)C(=O)CN1NCNN1CC(=O)N(c2ccccc2)CC1=O
inactive: NCI-H23 58.5 µM | ACHN > 100 µM | BT-549 > 100 µM | UACC-62 > 100 µM | MDA-MB-435 > 100 µM | MOLT-4 > 100 µM | KM12 > 100 µM | SF-268 > 100 µM | HCT-116 > 100 µM | OVCAR-4 > 100 µM | HL-60 > 100 µM | Malme-3M > 100 µM | A498 > 100 µM | HCC 2998 > 100 µM | MDA-N > 100 µM | EKVX > 100 µM | OVCAR-8 > 100 µM | 786-0 > 100 µM | NCI-H460 > 100 µM | Hs-578T > 100 µM | SK-OV-3 > 100 µM | SNB-75 > 100 µM | MCF7 > 100 µM | IGROV-1 > 100 µM | HOP-92 > 100 µM | CAKI-1 > 100 µM | M14 > 100 µM | UACC-257 > 100 µM | HOP-62 > 100 µM | A549 > 100 µM | NCI-H522 > 100 µM | U-251 > 100 µM | SR > 100 µM | OVCAR-3 > 100 µM | HT-29 > 100 µM | SW-620 > 100 µM | SF-539 > 100 µM | CCRF-CEM > 100 µM | RXF 393 > 100 µM | SK-MEL-28 > 100 µM | DU-145 > 100 µM | SNB-19 > 100 µM | RPMI-8226 > 100 µM | TK-10 > 100 µM | PC-3 > 100 µM | OVCAR-5 > 100 µM | UO-31 > 100 µM | SK-MEL-5 > 100 µM | SF-295 > 100 µM | SN12C > 100 µM | COLO 205 > 100 µM
> 100 µM: HCT-15

O=C(O)Cc1ccc(N2N=C(c3ccccc3)CC2=O)cc1
> 100 µM: HCT-15
inactive: NCI-H23 > 100 µM | ACHN > 100 µM | BT-549 > 100 µM | UACC-62 > 100 µM | MOLT-4 > 100 µM | KM12 > 100 µM | SF-268 > 100 µM | HCT-116 > 100 µM | OVCAR-4 > 100 µM | HL-60 > 100 µM | Malme-3M 18.6 µM | A498 > 100 µM | T47D > 100 µM | HCC 2998 > 100 µM | MDA-N > 100 µM | EKVX > 100 µM | OVCAR-8 > 100 µM | NCI-H460 > 100 µM | Hs-578T > 100 µM | SK-OV-3 > 100 µM | SNB-75 > 100 µM | MCF7 > 100 µM | IGROV-1 > 100 µM | CAKI-1 > 100 µM | M14 > 100 µM | UACC-257 > 100 µM | HOP-62 > 100 µM | K562 > 100 µM | NCI-H522 > 100 µM | U-251 > 100 µM | SR > 100 µM | OVCAR-3 > 100 µM | HT-29 > 100 µM | SW-620 > 100 µM | CCRF-CEM > 100 µM | NCI-H226 > 100 µM | SK-MEL-28 > 100 µM | DU-145 > 100 µM | SNB-19 > 100 µM | MDA-MB-231 > 100 µM | TK-10 > 100 µM | PC-3 > 100 µM | NCI/ADR-RES > 100 µM | OVCAR-5 > 100 µM | UO-31 > 100 µM | SK-MEL-5 > 100 µM | SF-295 > 100 µM | SN12C > 100 µM | SK-MEL-2 23.2 µM | COLO 205 > 100 µM
